Results as given in US10144730B2, “Inhibitors of c-Jun-N-terminal kinase (JNK)” (Dana-Farber Cancer Institute, Inc., priority 2011, dated 2018).
pEC50, pIC50: −log10 of the molar value.

Legend:
c-Jun phosphorylation [1] = assay: High throughput microscopy of c-Jun phosphorylation in A375 cells; format: cell-based; conditions: Homo sapiens, A-375; for EC50: read-out: p-c-Jun EC50 (nM) A375; for pIC50: rounded values of the text, read-out: IC50 for inhibiting c-Jun phosphorylation in A375 cells
Experimental: Cells were fixed in 2% paraformaldehyde for 10 min at room temperature and washed with PBS-T (Phosphate Buffered Saline, 0.1% Tween 20). Cells were permeabilized in methanol for 10 min at room temperature, washed with PBS-T, and blocked in Odyssey Blocking Buffer (LI-COR Biosciences) for 1 hour at room temperature. Cells were incubated overnight at 4° C. with antibody specific for Erk1/2(pT202/pY204), Akt(pS473), c-Jun(pS73), pP38(T180/Y182) and pSTAT3(Y705) (Cell Signaling Technology), pRSK1(S380) and pMSK1(S376) (Epitomics), and NF-κB (Santa Cruz Biotechnology) diluted 1:400 in Odyssey Blocking Buffer. […] Cells were washed twice with PBS and imaged in an imageWoRx high-throughput microscope (Applied Precision). Data were plotted using DataPflex.
(§1) In parallel with biochemical evaluation, the ability of the compounds to inhibit JNK activity in cells was investigated using two independent assays formats. This is a critical issue because there are several reported JNK inhibitors with nanomolar biochemical potency that translate into micromolar cellular inhibitors. The most well characterized direct phosphorylation substrate of JNK is the transcription factor c-Jun.

phosphorylation of STAT3 = assay: High-throughput microscopy, phosphorylation of STAT3; format: cell-based; conditions: Homo sapiens, A-375, A375 cells, IL-6 stimulation, read-out: Cellular EC50 pSTAT3
Experimental: (§2) A375 cells were stimulated with anisomycin (FIGS. 14A and 14C to 14F), IGF-1 (FIG. 14B), IL-6 (FIG. 14G), and TNF-α (FIG. 14H) for sixty minutes. The output of multiple signaling pathways was measured using high throughput microscopy at multiple concentrations of four JNK inhibitors and a control compound specific to each pathway DMSO (FIG. 14A), MK2206 (allosteric Akt inhibitor, Haoyuan Chemexpress Co., Limited. Hirai, et al., 2010) (FIG. 14B), PD0325901 (allosteric Mek inhibitor, Haoyuan Chemexpress Co., Limited. Barrett, et al., 2008) (FIGS. 14C and 14D), SB239063 (ATP-competitive p38 inhibitor, Haoyuan Chemexpress Co., Limited. Underwood et al., 2000) (FIGS. 14E and 14F), KIN001-040 (ATP-competitive JAK1,2,3 inhibitor, Haoyuan Chemexpress Co., Limited. Thompson et al., 2002) (FIG. 14G), and KIN001-208 (IKK inhibitor VIII, Haoyuan Chemexpress Co., Limited., Murata, et al., 2004) (FIG. 14H).
(§3) Cells were plated at 7500 cells/well in 96-well microscopy plates (Corning) in recommended media for 24 hours, and then starved in media lacking serum for 16 hours. Cells were pre-treated for 180 minutes with 10-fold stock solutions of JNK inhibitors and for 10 min with control compounds MK2206, PD0325901, SB239063, KIN040, and KIN208 and treated with 10-fold stock solutions of IGF-1, IL-6, TNF-α (all PeproTech), or anisomycin for 60 minutes. Cells were fixed in 2% paraformaldehyde for 10 min at room temperature and washed with PBS-T (Phosphate Buffered Saline, 0.1% Tween 20). Cells were permeabilized in methanol for 10 min at room temperature, washed with PBS-T, and blocked in Odyssey Blocking Buffer (LI-COR Biosciences) for 1 hour at room temperature. Cells were incubated overnight at 4° C. with antibody specific for Erk1/2(pT202/pY204), Akt(pS473), c-Jun(pS73), pP38(T180/Y182) and pSTAT3(Y705) (Cell Signaling Technology), pRSK1(S380) and pMSK1(S376) (Epitomics), and NF-κB (Santa Cruz Biotechnology) diluted 1:400 in Odyssey Blocking Buffer. Cells were washed three times in PBS-T and incubated with rabbit-specific secondary antibody labeled with Alexa Fluor 647 (Invitrogen) diluted 1:2000 in Odyssey Blocking Buffer. Cells were washed once in PBS-T and once in PBS and incubated in 250 ng/ml Hoechst 33342 (Invitrogen) and 1:1000 Whole Cell Stain (blue; Thermo Scientific) solution. Cells were washed twice with PBS and imaged in an imageWoRx high-throughput microscope (Applied Precision). Data were plotted using DataPflex. […]

[2] = tested on: NF-kB nuclear translocation; assay: High-throughput microscopy, NF-kB nuclear translocation; format: cell-based; conditions: Homo sapiens, A-375, A375 cells, TNF-α stimulation, read-out: Cellular EC50 NF-kB
Experimental: as §2, §3

phosphorylation of Erk = assay: High-throughput microscopy, phosphorylation of Erk; format: cell-based; conditions: Homo sapiens, A-375, A375 cells, anisomycin stimulation, read-out: Cellular EC50 pErk
Experimental: as §2, §3

JNK2 = JNK2 (Homo sapiens, UniProt P45984); assay: Biochemical JNK2 kinase inhibition (Z'-lyte format); conditions: Table 2
Sequence of JNK2 (P45984 whole entry): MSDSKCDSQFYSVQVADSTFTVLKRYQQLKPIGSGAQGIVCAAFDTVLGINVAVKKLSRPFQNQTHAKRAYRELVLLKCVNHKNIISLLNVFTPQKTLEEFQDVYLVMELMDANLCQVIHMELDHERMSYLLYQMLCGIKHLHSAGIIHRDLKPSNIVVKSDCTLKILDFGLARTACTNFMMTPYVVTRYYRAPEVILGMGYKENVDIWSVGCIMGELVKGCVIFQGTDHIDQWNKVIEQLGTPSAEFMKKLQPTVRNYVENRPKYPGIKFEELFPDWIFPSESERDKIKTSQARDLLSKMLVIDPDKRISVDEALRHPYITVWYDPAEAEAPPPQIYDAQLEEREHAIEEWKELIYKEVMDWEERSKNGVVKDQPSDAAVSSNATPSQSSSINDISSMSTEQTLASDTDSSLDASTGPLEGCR

JNK1 = JNK1 (Homo sapiens, UniProt P45983); assay: Biochemical JNK1 kinase inhibition (Z'-lyte format); conditions: Table 2
Sequence of JNK1 (P45983 whole entry): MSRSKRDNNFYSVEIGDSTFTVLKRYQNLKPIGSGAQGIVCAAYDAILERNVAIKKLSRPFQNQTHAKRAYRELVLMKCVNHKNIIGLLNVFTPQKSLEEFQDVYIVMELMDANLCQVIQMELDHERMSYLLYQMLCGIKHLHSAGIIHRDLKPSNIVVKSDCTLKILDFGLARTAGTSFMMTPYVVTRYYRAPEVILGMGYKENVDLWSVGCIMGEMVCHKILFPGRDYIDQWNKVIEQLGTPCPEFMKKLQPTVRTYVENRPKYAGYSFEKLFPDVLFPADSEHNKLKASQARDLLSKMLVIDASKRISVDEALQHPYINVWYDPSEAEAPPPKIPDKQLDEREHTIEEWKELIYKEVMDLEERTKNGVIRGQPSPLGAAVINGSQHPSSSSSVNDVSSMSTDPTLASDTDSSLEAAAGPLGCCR

c-Jun phosphorylation [3] = assay: LanthaScreen TR-FRET cell assay for c-Jun phosphorylation in HeLa cells; format: cell-based; conditions: Homo sapiens; for pIC50: HeLa cells, rounded values of the text, read-out: IC50 for inhibiting c-Jun phosphorylation in HeLa cells; for EC50: Hela cells, TNF-α stimulation, read-out: p-c-Jun EC50 (nM) Hela
Experimental: Phosphorylation was determined by measuring the time resolved FRET (TR-FRET) between a terbium labeled phospho-c-Jun specific antibody and GFP. The cells were plated in white tissue culture treated 384 well plates at a density of 10,000 cell per well in 32 μL assay medium (Opti-MEM®, supplemented with 0.5% charcoal/dextran-treated FBS, 100 U/ml penicillin and 100 μg/ml streptomycin, 0.1 mM nonessential amino acids, 1 mM sodium pyruvate, 25 mM Hepes, pH 7.3, and lacking phenol red). After overnight incubation, cells were pretreated for 90 minutes with compound (at indicated concentration) diluted in 4 μL assay buffer followed by 30 min of stimulation with 5 ng/ml of TNF-α in 4 μL assay buffer (final assay volume was 40 μl). The medium was then removed by aspiration, and the cells were lysed by adding 20 μl of lysis buffer (20 mM Tris-HCl, pH 7.6, 5 mM EDTA, 1% Nonidet P-40 substitute, 5 mM NaF, 150 mM NaCl, and 1:100 protease and phosphatase inhibitor mix, SIGMA P8340 and P2850, respectively). The lysis buffer included 2 nM of the terbium-labeled anti-c-Jun (pSer73) detection antibodies (Life Technologies). After allowing the assay to equilibrate for 60 minutes at room temperature, TR-FRET emission ratios were determined on a BMG Pherastar fluorescence plate reader (BMG Labtech, Cary, N.C.) using the following parameters: excitation at 340 nm; emission at 520 nm and 490 nm; 100 μs lag time; 200 μs integration time; and emission ratio=Em520/Em490. All data were analyzed and plotted using Graphpad Prism 4.
as §1

JNK3 = JNK3 (Homo sapiens, UniProt P53779); assay: Biochemical JNK3 kinase inhibition (Z'-lyte format); conditions: Table 2
Sequence of JNK3 (P53779 whole entry): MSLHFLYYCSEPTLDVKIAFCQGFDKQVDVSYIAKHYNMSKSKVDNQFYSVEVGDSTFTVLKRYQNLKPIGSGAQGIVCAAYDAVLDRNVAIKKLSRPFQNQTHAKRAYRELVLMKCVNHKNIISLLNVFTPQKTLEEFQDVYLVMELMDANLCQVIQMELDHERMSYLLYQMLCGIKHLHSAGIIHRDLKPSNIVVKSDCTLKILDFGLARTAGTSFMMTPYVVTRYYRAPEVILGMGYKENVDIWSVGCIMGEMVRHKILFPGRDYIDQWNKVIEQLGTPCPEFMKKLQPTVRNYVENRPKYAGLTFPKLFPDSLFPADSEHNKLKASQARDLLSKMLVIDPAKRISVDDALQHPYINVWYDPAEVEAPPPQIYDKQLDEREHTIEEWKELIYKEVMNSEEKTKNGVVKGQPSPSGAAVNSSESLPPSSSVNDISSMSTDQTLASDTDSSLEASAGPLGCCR

phosphorylation of RSK = assay: High-throughput microscopy, phosphorylation of RSK; format: cell-based; conditions: Homo sapiens, A-375, A375 cells, anisomycin stimulation, read-out: Cellular EC50 pRSK
Experimental: as §2, §3

phosphorylation of Akt = assay: High-throughput microscopy, phosphorylation of Akt; format: cell-based; conditions: Homo sapiens, A-375, A375 cells, IGF-1 stimulation, read-out: Cellular EC50 pAkt
Experimental: as §2, §3

phosphorylation of p38 = assay: High-throughput microscopy, phosphorylation of p38; format: cell-based; conditions: Homo sapiens, A-375, A375 cells, anisomycin stimulation, read-out: Cellular EC50 pP38
Experimental: as §2, §3

JNK = assay: Binding kinetics (pulse-chase) assay, ATP-biotin labeling of JNK in A375 cells; format: cell-based; conditions: 1 μM compound
Experimental: A375 cells were incubated with inhibitors for the indicated amount of time after which cell lysates were prepared and labeled with ATP-biotin. Biotinylated proteins were pulled down with streptavidin beads and material bound to the beads was eluted and separate by SDS-PAGE followed by Western blot analysis for JNK.
A375 cells (ATCC® CRL-1619™) were pre-treated with 1 μM compound for the indicated amounts of time. Remove the medium and wash 3 times with PBS. Resuspend the cell pellet with 1 mL Lysis Buffer (1% NP-40, 1% CHAPS, 25 mM Tris, 150 mM NaCl, Phosphatase Inhibitor Cocktail, Roche 04906845001, and Protease Inhibitor Cocktail Roche 11836170001). Rotate end-to-end for 30 min at 4° C. Lysates were cleared by centrifugation at 14000 rpm for 15 min in the Eppendorf. The cleared lysates gel filtered into Kinase Buffer (0.1% NP-40, 20 mM HEPES, 150 mM NaCl, Phosphatase Inhibitor Cocktail, and Protease Inhibitor Cocktail) using Bio-Rad 10DG colums. The total protein concentration of the gel-filtered lysate should be around 5-15 mg/ml. […]
In order to evaluate the kinetics with which JNK-IN-5 could covalently modify JNK in cells, a pulse-chase assay was developed . […] Streptavidin affinity chromatography is then used to isolate all biotinylated proteins and JNK protein is detected following SDS-PAGE and Western blotting (FIG. 8). […]

[4] = Table 5, A375, read-out: E50/A375
[5] = A375 cells, anisomycin stimulation

Row | Compound | pEC50 (c-Jun phosphorylation [1]; [4]) | EC50 (c-Jun phosphorylation [1]; [5]) [nM] | EC50 (c-Jun phosphorylation [3]) [nM] | IC50 (JNK3) [nM] | further results
1 | CN(C)C/C=C/C(=O)Nc1cccc(C(=O)Nc2ccc(Nc3nccc(-c4c(-c5ccccc5)nn5ccccc45)n3)cc2)c1 [JNK-IN-11] | – | 8.6 | 48 | 0.5 | pEC50 (phosphorylation of STAT3): < 5.00; pEC50 [2]: < 5.00; pEC50 (c-Jun phosphorylation [1]; A375 cells, anisomycin stimulation, high-throughput microscopy, Table 4, read-out: Cellular EC50 pc-Jun): > 8.00; pIC50 (c-Jun phosphorylation [1]; A375 cells): ~8.00; pEC50 (phosphorylation of Erk): 7.72; IC50 (JNK2): 0.5 nM; IC50 (JNK1): 1.34 nM; pIC50 (c-Jun phosphorylation [3]): ~7.52; pEC50 (phosphorylation of RSK): 7.70; pEC50 (phosphorylation of Akt): < 5.00; pEC50 (phosphorylation of p38): 7.82
2 | Oc1c2ccccc2c2c3c(cccc13)N=N2 [SP-600125, reference compound] | – | 1980 | 7450 | – | –
3 | Cc1ccc(NC(=O)/C=C/CN(C)C)cc1C(=O)Nc1ccc(Nc2nccc(-c3cccnc3)n2)cc1 [JNK-IN-9] | – | 117 | 104 | 0.5 | –

More lines, main results first:

Row | pEC50 (c-Jun phosphorylation [1]; [4]) | EC50 (c-Jun phosphorylation [1]; [5]) [nM] | EC50 (c-Jun phosphorylation [3]) [nM] | IC50 (JNK3) [nM] | Compound | further results
4 | 5.62 | – | – | – | CN(C)C/C=C/C(=O)Nc1ccc(C(=O)Nc2cccc(Nc3nccc(-c4cccnc4)n3)c2)cc1 [ZG-10] | –
5 | 5.26 | – | – | – | C=CC(=O)Nc1ccc(C(=O)Nc2cccc(Nc3nccc(-c4cccnc4)n3)c2)cc1 [ZG-9] | –
6 | 7.49 | 32 | 118 | 0.96 | C=CC(=O)Nc1cccc(C(=O)Nc2ccc(Nc3nccc(-c4cccnc4)n3)cc2)c1 [JNK-IN-5] | incubation time to fully protect JNK from labeling by ATP-biotin (JNK): approximately three; pIC50 (c-Jun phosphorylation [1]; A375 cells): ~7.52; IC50 (JNK2): 1.93 nM; IC50 (JNK1): 2.11 nM; pIC50 (c-Jun phosphorylation [3]): ~7.00
7 | – | 141 | 173 | 0.5 | Cc1ccc(C(=O)Nc2ccc(Nc3nccc(-c4cccnc4)n3)cc2)cc1NC(=O)/C=C/CN(C)C [JNK-IN-10] | –
